Measured values reported in US20220194997A1, “SUMO PEPTIDES FOR TREATING NEURODEGENERATIVE DISEASES” (The Chinese University of Hong Kong, priority 2019, published 2022).
One block for each molecule: values may come before it. Where no end group is shown, it is not given here.

Key:
[1] = system: α-synuclein (wild-type) transgenic Drosophila; assay: Climbing assay after larval feeding; type: in vivo; details: larval feeding 60, 120 or 240 μM, pilot study
[2] = system: α-synuclein-A30P transgenic Drosophila; assay: Climbing assay after larval feeding; type: in vivo; details: larval feeding 60, 120 or 240 μM, pilot study
Excerpt: (§1) The following fly strains were adopted in this study: gmr-GAL4 (RRID: BDSC_1104), elav-GAL4 (RRID: BDSC_458), UAS-α-synuclein-A30P (RRID: BDSC_8147), and UAS-α-synuclein-A53T (RRID: BDSC_8148). All strains were obtained from the Bloomington Drosophila Stock Center. To obtain PD model flies, virgin flies carrying the driver gmr-GAL4 or elav-GAL4 on X chromosome were crossed to males from UAS-α-synuclein-A30P/UAS-α-synuclein-A53T stocks. The progeny of these crosses was maintained on standard cornmeal medium supplemented with dry yeast in 25° C. incubator.
(§2) Climbing assay was performed according to previously described^10. Briefly, a group of 10 flies from each condition were placed in individual plastic vial, and gently tapped to the bottom of the vail. The number of flies that could climb a height of 2 cm within 15 s was recorded. Each trial was repeated five times with 1 min recovery periods between each trials. Total 20 (10 males and 10 females) flies from each condition were tested for one genetic cross.

[3] = system: α-synuclein-A53T transgenic Drosophila; assay: Climbing assay after larval feeding; type: in vivo; details: larval feeding 60, 120 or 240 μM, pilot study
Excerpt: as §1, §2

α-synuclein [4] = target: T1, α-synuclein (Homo sapiens, UniProt P37840); assay: Fibrillation (Thioflavin T) assay of SDS-induced α-synuclein aggregation; type: biochemical
T1 construct: made in house; host or cells: Escherichia coli BL21(DE3), pET-28a (NcoI/XhoI)
Procedure: The reaction contained the mixture of 70 μM α-synuclein and different concentrations of SUMO1 variants, 40 μM Thioflavin T (ThT) (Sigma-Aldrich), 0.4 mM SDS in reaction buffer (20 mM HEPES, 150 mM NaCl, pH 7.4). Reactions were performed in quadruplicate in a black clear-bottomed 96-well plate (Nunc, Thermo Fisher Scientific) with a final volume of 150 μL. The plate was sealed with sealing membrane (Thermo Fisher Scientific) and loaded into an Infinite M1000 plate reader (Tecan), incubated at 37° C. without agitation. The fluorescence was detected at 30 min intervals, with excitation at 450 nm and with emission at 485 nm. Protein samples were analyzed after fibrillation assay using size-exclusion chromatography on a Superdex 200 GL 5/150 column (3 ml, GE Healthcare) in reaction buffer.
Sodium dodecyl sulfate (SDS) was added to mimic membrane environments and serve as nucleation scaffold to stimulate α-synuclein aggregation (Giehm et al., 2010).
Thioflavin T (ThT) assay was performed as previously described^5 with minor modifications. […] The potential pre-formed aggregates in α-synuclein were removed by centrifugation at 15,000 rpm for 15 min and filtering through a 0.2 μm filter before the experiments. Reactions were performed in a black clear-bottomed 96-well plate (Nunc, Thermo Fisher Scientific) sealed with clear adhesive sealing sheet (Thermo Fisher Scientific) to avoid evaporation and loaded into an Infinite® M1000 plate reader (Tecan), incubated at 37° C. for 7 days without agitation. The fluorescence was recorded at 485 nm with excitation wavelength of 450 nm at the interval of 30 min.

α-synuclein [5] = target: T1, α-synuclein; assay: Microscale thermophoresis (MST) binding
Procedure: The labelling reaction was performed according to the manufacturer's instructions. Unreacted dye was removed with the dye removal column supplied in the Protein Labelling Kit RED-NHS (NanoTemper Technologies) or desalting column (Bio-Rad). […] The labelled targets were adjusted to appropriate concentration for detection. The ligands were dissolved in reaction buffer and a series of 16 1:1 dilutions was prepared. For the measurement, each ligand dilution was mixed with one volume of labelled protein target. After 10 min incubation, the samples were loaded into standard or premium Monolith NT.115 Capillaries (NanoTemper Technologies). MST was measured using a Monolith NT.115 instrument (NanoTemper Technologies) at an ambient temperature of 25° C. Instrument parameters were adjusted to 20% LED power and medium MST power. Data of three independently pipetted measurements were analyzed (MO.Affinity Analysis software version 2.1.3, NanoTemper Technologies) using the signal from an MST-on time of 5 s.
Unreacted dye was removed with desalting column (2K MWCO, Bio-Rad). The purity was monitored by measuring the ratio of protein to dye after the clean-up procedure. […]

SH-SY5Y cells = assay: Cellular uptake of Alexa 488 labelled peptide, confocal microscopy; type: cell-based; details: 1 h and 24 h, time course
Procedure: SH-SY5Y cells were planted on 35 mm glass bottom confocal dishes and incubated overnight. After co-incubation with Alexa 488 labelled R8-SUMO1(31-55), cells were fixed with 4% paraformaldehyde for 15 min at room temperature at different time points and visualized by Leica TCS SP8 confocal microscope with 63X oil immersion objective.

[6] = equimolar ratio (1:1), 70 μM α-synuclein, 37° C., 7 days

Molecule: SUMO1(31-55): residues 31-55 of human SUMO1, a beta sheet followed by an alpha-helix (SSEIHFKVKMTTHLKKLKESYCQRQ)
locomotor dysfunction (climbing) [1]: improved the locomotor dysfunction | locomotor dysfunction (climbing) [2]: improved the locomotor dysfunction | locomotor dysfunction (climbing) [3]: improved the locomotor dysfunction

Molecule: RRRRRRRRSSEIHFKVKMTTHLKKLKESYCQRQ [R8-SUMO1(31-55)]
internalization into cells (SH-SY5Y cells): internalization into SH-SY5Y cells at a high efficiency

Molecule: His-SUMO1(31-55): SUMO1(31-55) with an N-terminal 10×His tag ({10xHis tag}-SSEIHFKVKMTTHLKKLKESYCQRQ; UniProt P63165 31-55, looked up, fragment)
inhibition of α-synuclein aggregation (α-synuclein [4]; ratio of 1:5 or 1:10 α-synuclein: SUMO peptide inhibitor): partial inhibition

Molecule: SUMO2(16-51): residues 16-51 of human SUMO2, identical sequence to SUMO3(15-50) (DHINLKVAGQDGSVVQFKIKRHTPLSKLMKAYCERQ; UniProt P61956 16-51, looked up, fragment)
inhibition of α-synuclein aggregation (α-synuclein [4]; [6]): suppressed | delay of the initiation of the aggregation (α-synuclein [4]; half molar ratio): 2 days

More lines, now with the values ahead:

inhibition of α-synuclein aggregation (α-synuclein [4]; [6]): much weaker inhibition effect | binding ability to α-synuclein compared with that of SUMO1(15-55) (α-synuclein [5]): around 1/40
Molecule: CC[C@H](C)[C@H](NC(=O)[C@H](Cc1ccc(O)cc1)NC(=O)[C@H](CCC(=O)O)NC(=O)CNC(=O)[C@H](CCC(=O)O)NC(=O)[C@H](CCCCN)NC(=O)[C@H](CCCCN)NC(=O)[C@@H](N)CC(=O)O)C(=O)N[C@@H](CCCCN)C(=O)N[C@@H](CC(C)C)C(=O)N[C@@H](CCCCN)C(=O)N[C@H](C(=O)N[C@H](C(=O)NCC(=O)N[C@@H](CCC(N)=O)C(=O)N[C@@H](CC(=O)O)C(=O)N[C@@H](CO)C(=O)N[C@@H](CO)C(=O)N[C@@H](CCC(=O)O)C(=O)N[C@H](C(=O)N[C@@H](Cc1c[nH]cn1)C(=O)N[C@@H](Cc1ccccc1)C(=O)N[C@@H](CCCCN)C(=O)N[C@H](C(=O)N[C@@H](CCCCN)C(=O)N[C@@H](CCSC)C(=O)N[C@H](C(=O)N[C@H](C(=O)N[C@@H](Cc1c[nH]cn1)C(=O)N[C@@H](CCC(=O)O)C(=O)N[C@@H](CCCCN)C(=O)N[C@@H](CCCCN)C(=O)N[C@@H](CCCNC(=N)N)C(=O)N[C@@H](CCCCN)C(=O)N[C@@H](CCC(=O)O)C(=O)N[C@@H](CO)C(=O)N[C@@H](Cc1ccc(O)cc1)C(=O)N[C@@H](CS)C(=O)N[C@@H](CCC(N)=O)C(=O)N[C@@H](CCCNC(=N)N)C(=O)N[C@@H](CCC(N)=O)C(=O)O)[C@@H](C)O)[C@@H](C)O)C(C)C)[C@@H](C)CC)[C@@H](C)CC)C(C)C [SUMO1(15-55) (L44E, L47R)]

inhibition of α-synuclein aggregation (α-synuclein [4]; [6]): not effective
Molecule: SUMO1(20-40): SUMO1 derived peptide, residues 20-40 (EYIKLKVIGQDSSEIHFKVKM; UniProt P63165 20-40, looked up, fragment)
